Where two headings read alike, the source gives them in different places.
Legend:
Nav1.5 = Nav1.5 (Homo sapiens, UniProt Q14524); assay: Ion channel screening; format: cell-based; conditions: 10 µM, pulse 26
Text: (§1) Ion channel screening. […] The parameters measured were the maximum inward current evoked on stepping to -20 mV from the 1st and 26th pulse. Human Kv4.3/KChIP2 currents were evoked from a holding potential of -80 mV by a series of four 500 msec pulses to 0 mV using a 1000 msec interval between pulses. The parameter measured was the amplitude of the outward current 50 msec after the onset of the 4th voltage step to 0 mV. […] Human Kv1.5 currents were evoked by a single pulse from a holding potential of -80 mV to a potential of 0 mV for 4 sec before returning to -80 mV. The parameters measured were the maximum amplitude of outward currents evoked at the beginning of the voltage pulse and at the end of the voltage step from -80 mV to 0 mV. Human KCNQ1/minK currents were evoked by a single pulse delivered from a holding potential of -80 mV to +60 mV for 4 sec before returning to -80 mV. The parameter measured was the maximum outward current evoked on stepping to +60 mV from the holding potential of -80 mV. hERG currents were evoked by a three-pulse protocol where voltage was first stepped to +40 mV for two sec from a holding potential of –80 mV to inactivate hERG channels. […] The parameter measured was the maximum inward current evoked upon stepping to -110 mV from the holding potential of -30 mV. […]

Kv1.5 = Kv1.5 (Homo sapiens, UniProt P22460); assay: Ion channel screening; format: cell-based; conditions: 10 µM
Text: as §1

KCNQ1/mink = KCNQ1/mink (Homo sapiens, UniProt P51787); assay: Ion channel screening; format: cell-based; conditions: 10 µM
Text: as §1

[1] = Toxicokinetics in rats, twice weekly IV for 29 d; format: in vivo, Sprague-Dawley rats
Experimental: Ninety-six male and female Sprague-Dawley rats (6–7 weeks old) were received from Charles River Laboratories (Raleigh, NC) catheterized via a femoral vein prior to arrival. Animals were acclimated in individual stainless-steel cages with access to water and Certified Rodent Diet #2014 C (Envigo RMS) ad libitum for 6 d prior to study initiation. Environmental controls were set to maintain a temperature range of 20 to 26°C, a relative humidity range of 30 to 70%, eight or greater air changes/h, and a 12-h light/dark cycle. Animals were infused with sterile isotonic (0.9%) saline for a minimum of 4 d (0.20 mL/h for males or 0.15 mL/h for females) during the predose phase. At initiation of dosing, animals were 8 to 9 weeks old, and body weights ranged from 283 to 341 g for males and 188 to 238 g for females. Gamitrinib formulated as indicated above was administered by IV infusion on d 4, 8, 11, 15, 18, 22, 25, and 29 of the dosing phase at 1, 10, 25 mg/kg/dose and dose volume of 5 mL/kg. The vehicle control administered with the same schedule contained 2.5% DMSO, 0.125% polysorbate 80, 0.031% lecithin, 1.25% sucrose and 4.375% dextrose. Animals were checked twice daily throughout the duration of the study for mortality, abnormalities, and signs of pain or distress. Detailed observations were conducted for each animal up to two times during the predose phase and for each toxicity animal prior to dosing on d 1, 8, 15, 22, and 29 of the dosing phase and on d 1, 7, and 14 of the recovery phase. Blood samples were collected on d. 1, 4 and 29 of the dosing phase 5 min, 1 h and 24 h post-dose, maintained on chilled cryoracks and centrifuged within 1 h of collection. Tissue samples harvested from each animal were embedded in paraffin, sectioned, and slides were prepared and stained with hematoxylin and eosin.

CYP2B6 = biological target: T1, CYP2B6 (Homo sapiens, UniProt P20813); conditions: microsomes
T1 sequence (P20813 1-491): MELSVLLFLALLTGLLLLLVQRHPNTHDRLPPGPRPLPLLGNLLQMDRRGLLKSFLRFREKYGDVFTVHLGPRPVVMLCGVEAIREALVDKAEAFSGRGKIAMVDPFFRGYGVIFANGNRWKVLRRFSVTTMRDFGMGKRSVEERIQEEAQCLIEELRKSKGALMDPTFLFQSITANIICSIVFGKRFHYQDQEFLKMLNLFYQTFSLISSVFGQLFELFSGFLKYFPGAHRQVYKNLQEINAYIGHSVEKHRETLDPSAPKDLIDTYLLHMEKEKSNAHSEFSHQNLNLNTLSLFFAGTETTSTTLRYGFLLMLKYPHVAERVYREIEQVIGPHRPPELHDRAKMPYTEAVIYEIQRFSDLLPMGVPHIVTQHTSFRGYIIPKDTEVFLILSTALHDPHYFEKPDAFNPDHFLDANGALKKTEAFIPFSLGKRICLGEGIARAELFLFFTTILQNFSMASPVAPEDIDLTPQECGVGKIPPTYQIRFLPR
Experimental: (§2) CYP inhibition in liver microsomes. […] Samples were analyzed for metabolite formation by LC-MS/MS. The results were expressed using the peak area ratio of analyte to internal standard, based on the calibration curves.
(§3) Where Range=fitted uninhibited value, s=slope factor, x=inhibitor concentration, y=% control activity.

CYP2C8 = biological target: T2, CYP2C8 (Homo sapiens, UniProt P10632); conditions: microsomes
T2 sequence (P10632 1-490): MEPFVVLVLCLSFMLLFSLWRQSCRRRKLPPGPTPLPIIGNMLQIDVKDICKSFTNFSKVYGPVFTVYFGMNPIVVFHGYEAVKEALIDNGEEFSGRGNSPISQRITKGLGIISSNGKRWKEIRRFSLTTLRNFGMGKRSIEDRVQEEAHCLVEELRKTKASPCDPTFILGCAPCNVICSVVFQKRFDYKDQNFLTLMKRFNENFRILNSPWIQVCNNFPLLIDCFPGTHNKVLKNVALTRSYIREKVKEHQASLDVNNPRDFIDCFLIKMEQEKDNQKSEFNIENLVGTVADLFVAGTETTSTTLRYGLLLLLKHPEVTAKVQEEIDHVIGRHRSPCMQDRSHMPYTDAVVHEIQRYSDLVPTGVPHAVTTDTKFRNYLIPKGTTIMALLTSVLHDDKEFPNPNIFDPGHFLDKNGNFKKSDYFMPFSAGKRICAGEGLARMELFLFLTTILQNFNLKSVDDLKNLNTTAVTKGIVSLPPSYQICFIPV
Experimental: as §2, §3

CYP2C9 = CYP2C9 (Homo sapiens, UniProt P11712); conditions: microsomes
Experimental: as §2, §3

CYP3A4 = CYP3A4 (Homo sapiens, UniProt P08684); conditions: microsomes
Experimental: as §2, §3

hERG = hERG (Homo sapiens, UniProt Q12809)
Experimental: Caco-2 and HEK293 cells were obtained from the American Type Culture Collection (ATCC, Manassas, VA) and grown in culture according to the supplier’s specifications. In some experiments, HEK293 cells were stably transfected with hERG cDNA, and polyclonal cultures were maintained in the presence of 250 µg/ml geneticin (G418).
Patch clamp recording. […] For electrophysiology recording, a micropipette was pulled from borosilicate glass with the pipette tip resistance between 3 ~ 5 MΩ. For each experiment, polyclonal HEK293 cells stably transfected with hERG cDNA and maintained in 250 µg/ml Geneticin (G418) were plated on 35 mm dishes on the microscope stage and a commercial patch clamp amplifier was used for the whole cell recordings. The tail currents were evoked at 22°C once every 30 sec by a 3 sec-50 mV repolarizing pulse following a 2 sec +50 mV depolarizing pulse with a hold voltage of -80 mV. A 50 msec depolarized pulse to -50 mV at the beginning of the voltage protocol served as a baseline for calculating the amplitude of the peak tail current. […] The cells were kept in the test solution until the peak tail current was stable (<5% change) for ~5 sweeps or for a maximum of 6 min, whichever came first. Peak tail amplitudes were plotted as a function of the sweep number. […] The % inhibition of the test article was calculated from the following equation:

NCI 60 cell-line screen = tested on: NCI 60 cell-line screen; parameters: method as in PMID 20876793, PMID 21285984; conditions: read-out: IC50, anticancer activity, cited from earlier work
tumor = conditions: mice; cited from earlier work
[2] = Phase I, cytochrome P450-mediated human liver microsome metabolism; conditions: 0.5 µM, human liver microsomes

Sequence of hERG (Q12809 whole entry): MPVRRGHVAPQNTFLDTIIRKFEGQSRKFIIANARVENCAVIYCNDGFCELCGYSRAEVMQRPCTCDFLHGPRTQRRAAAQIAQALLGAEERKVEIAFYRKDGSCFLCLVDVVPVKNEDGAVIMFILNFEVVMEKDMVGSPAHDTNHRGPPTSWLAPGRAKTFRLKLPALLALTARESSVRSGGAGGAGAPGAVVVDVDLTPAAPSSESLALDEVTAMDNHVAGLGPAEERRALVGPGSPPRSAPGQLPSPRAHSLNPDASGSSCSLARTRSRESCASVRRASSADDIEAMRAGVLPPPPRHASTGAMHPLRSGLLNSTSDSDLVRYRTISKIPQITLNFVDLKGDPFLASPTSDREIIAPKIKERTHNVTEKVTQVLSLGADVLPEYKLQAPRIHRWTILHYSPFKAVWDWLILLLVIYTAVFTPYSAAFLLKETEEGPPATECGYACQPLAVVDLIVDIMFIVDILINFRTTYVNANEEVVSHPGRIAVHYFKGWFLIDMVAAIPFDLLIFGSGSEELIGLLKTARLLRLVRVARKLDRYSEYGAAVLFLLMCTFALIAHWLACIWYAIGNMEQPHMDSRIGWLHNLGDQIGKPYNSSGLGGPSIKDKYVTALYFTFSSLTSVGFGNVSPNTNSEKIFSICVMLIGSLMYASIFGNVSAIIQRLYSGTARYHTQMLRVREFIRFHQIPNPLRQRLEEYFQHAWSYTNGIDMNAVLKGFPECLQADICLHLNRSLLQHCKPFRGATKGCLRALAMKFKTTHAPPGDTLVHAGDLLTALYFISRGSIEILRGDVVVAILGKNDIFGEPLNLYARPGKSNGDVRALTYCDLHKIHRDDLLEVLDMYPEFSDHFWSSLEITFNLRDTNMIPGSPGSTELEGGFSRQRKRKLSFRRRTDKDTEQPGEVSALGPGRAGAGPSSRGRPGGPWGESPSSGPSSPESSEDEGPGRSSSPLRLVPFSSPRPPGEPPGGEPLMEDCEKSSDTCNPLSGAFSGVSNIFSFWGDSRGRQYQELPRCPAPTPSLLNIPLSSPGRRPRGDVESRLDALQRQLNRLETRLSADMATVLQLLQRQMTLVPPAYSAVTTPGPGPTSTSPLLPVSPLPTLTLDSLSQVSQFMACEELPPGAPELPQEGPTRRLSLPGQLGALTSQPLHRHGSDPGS
Sequence of CYP2C9 (P11712 whole entry): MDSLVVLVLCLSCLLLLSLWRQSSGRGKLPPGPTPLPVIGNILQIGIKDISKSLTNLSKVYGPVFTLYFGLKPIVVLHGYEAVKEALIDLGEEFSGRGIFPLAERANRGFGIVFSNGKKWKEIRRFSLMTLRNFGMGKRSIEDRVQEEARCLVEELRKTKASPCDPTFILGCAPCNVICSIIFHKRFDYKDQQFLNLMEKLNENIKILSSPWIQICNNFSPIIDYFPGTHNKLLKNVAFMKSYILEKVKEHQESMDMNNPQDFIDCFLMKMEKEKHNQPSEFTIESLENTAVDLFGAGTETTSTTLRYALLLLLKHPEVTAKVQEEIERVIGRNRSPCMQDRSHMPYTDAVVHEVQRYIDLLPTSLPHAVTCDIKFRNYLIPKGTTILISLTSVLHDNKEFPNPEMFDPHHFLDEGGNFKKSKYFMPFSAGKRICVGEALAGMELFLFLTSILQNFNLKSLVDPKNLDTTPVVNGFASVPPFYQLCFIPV
Sequence of KCNQ1/mink (P51787 whole entry): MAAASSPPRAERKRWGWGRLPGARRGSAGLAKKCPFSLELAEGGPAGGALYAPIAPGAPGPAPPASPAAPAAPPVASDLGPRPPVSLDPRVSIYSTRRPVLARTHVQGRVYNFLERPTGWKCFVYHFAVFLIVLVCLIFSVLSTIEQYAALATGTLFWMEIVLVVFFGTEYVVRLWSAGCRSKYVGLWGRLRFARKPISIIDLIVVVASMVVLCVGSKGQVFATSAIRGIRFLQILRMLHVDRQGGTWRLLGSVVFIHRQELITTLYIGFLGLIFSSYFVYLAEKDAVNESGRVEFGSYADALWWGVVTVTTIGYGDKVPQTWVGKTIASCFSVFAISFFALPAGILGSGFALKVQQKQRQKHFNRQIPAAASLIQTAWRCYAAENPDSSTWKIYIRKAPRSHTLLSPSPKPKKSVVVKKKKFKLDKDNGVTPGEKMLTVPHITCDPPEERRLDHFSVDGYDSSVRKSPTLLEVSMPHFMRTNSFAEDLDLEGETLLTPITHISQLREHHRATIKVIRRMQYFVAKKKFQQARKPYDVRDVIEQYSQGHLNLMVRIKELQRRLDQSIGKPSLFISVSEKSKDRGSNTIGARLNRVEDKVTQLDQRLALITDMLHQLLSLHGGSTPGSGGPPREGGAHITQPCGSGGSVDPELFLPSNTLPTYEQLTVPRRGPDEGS
Sequence of Nav1.5 (Q14524 whole entry): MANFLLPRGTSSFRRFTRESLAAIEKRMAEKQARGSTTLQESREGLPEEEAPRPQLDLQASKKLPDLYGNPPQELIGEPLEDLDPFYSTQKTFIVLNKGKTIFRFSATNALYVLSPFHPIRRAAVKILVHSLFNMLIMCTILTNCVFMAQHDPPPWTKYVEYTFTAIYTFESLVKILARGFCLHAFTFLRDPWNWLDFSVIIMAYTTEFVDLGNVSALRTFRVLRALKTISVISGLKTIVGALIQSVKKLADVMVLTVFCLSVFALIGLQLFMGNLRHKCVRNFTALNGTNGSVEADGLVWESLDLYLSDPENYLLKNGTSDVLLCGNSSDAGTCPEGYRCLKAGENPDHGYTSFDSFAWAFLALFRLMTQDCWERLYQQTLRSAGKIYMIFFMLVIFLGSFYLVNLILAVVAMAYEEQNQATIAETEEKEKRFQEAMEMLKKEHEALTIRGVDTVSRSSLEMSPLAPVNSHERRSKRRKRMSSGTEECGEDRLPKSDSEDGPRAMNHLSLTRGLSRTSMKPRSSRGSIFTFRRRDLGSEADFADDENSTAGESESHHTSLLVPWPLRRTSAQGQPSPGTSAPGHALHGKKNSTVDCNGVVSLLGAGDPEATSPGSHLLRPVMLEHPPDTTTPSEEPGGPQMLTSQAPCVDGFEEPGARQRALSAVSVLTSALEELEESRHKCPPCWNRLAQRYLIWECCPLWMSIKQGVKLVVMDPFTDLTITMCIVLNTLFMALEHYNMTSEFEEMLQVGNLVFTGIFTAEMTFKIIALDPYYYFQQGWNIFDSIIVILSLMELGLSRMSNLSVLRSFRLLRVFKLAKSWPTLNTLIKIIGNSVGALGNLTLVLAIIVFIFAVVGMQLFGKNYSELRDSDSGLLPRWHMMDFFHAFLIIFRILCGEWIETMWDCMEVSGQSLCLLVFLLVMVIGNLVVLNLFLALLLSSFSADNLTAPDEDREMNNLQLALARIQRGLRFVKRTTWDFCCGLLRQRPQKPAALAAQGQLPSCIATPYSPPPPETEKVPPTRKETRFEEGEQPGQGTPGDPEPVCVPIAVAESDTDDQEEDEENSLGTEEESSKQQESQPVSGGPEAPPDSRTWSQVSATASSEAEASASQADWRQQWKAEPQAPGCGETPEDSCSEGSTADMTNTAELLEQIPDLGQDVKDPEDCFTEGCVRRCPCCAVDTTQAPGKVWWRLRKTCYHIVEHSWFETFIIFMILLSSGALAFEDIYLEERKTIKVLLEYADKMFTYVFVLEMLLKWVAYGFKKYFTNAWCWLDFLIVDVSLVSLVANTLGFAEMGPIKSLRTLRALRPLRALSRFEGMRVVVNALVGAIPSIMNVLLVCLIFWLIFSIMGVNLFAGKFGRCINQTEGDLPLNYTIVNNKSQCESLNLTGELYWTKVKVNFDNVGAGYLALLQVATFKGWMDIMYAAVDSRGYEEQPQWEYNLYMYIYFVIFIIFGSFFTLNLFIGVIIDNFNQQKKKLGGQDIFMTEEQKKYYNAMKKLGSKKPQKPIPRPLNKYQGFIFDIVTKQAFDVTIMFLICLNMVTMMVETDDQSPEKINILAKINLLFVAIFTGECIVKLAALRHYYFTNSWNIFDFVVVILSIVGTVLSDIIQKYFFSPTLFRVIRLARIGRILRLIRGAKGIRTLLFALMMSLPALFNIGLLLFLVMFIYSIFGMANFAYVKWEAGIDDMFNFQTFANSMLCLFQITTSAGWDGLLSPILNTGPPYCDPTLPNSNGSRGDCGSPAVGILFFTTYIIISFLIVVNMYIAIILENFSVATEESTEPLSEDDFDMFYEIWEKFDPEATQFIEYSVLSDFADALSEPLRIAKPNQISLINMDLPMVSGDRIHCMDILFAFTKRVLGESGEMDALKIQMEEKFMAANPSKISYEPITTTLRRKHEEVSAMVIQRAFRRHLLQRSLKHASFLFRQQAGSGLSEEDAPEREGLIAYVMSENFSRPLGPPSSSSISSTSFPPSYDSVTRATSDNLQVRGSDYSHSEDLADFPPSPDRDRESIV
Sequence of Kv1.5 (P22460 whole entry): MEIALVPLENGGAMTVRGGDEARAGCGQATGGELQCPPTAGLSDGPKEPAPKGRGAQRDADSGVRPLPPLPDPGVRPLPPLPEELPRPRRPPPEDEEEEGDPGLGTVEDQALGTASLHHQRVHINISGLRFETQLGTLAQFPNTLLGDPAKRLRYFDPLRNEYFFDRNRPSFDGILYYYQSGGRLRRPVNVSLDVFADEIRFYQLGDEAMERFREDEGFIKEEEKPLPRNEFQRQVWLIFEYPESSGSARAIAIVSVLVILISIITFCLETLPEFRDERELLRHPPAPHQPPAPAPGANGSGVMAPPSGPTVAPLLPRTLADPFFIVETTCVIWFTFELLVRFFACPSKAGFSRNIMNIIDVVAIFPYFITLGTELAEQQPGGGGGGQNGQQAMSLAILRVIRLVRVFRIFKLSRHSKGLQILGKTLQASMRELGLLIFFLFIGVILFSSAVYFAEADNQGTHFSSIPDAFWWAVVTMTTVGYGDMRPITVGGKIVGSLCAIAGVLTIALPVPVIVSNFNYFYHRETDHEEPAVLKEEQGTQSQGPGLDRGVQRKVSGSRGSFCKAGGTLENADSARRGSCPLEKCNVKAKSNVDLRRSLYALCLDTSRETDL

## COC1C=CC=C(C)C(=O)NC2=CC(=O)C(NCCCCCC[P+](c3ccccc3)(c3ccccc3)c3ccccc3)=C(CC(C)CC(OC)C(O)C(C)C=C(C)C1OC(N)=O)C2=O.F[P-](F)(F)(F)(F)F (stereo not drawn) [Gamitrinib]
Nav1.5
  inhibition of Nav1.5 currents: 22.3 ± 5.3%
Kv1.5
  inhibition of Kv1.5 currents: 6.6 ± 1.3%
KCNQ1/mink
  inhibition of KCNQ1/mink currents: 22.5 ± 1.1%
[1]; Cmax and AUC0–24 d 4 vs d 29
  drug accumulation: no drug accumulation after multiple doses
[1]; rat, in vivo, 1 mg/kg
  AUC0–24: 174 ng·h/mL
[1]; rat, in vivo, 10 mg/kg
  AUC0–24: 1300 ng·h/mL
[1]; rat, in vivo, iv, 25 mg/kg
  CLSS: 84.83 to 131.33 mL/min/kg
  VSS: 12.2 to 90.0 L/kg
CYP2B6
  IC50: 16000 nM
CYP2C8
  IC50: 8000 nM
CYP2C9
  IC50: 1100 nM
CYP3A4
  IC50: 120 to 200 nM
hERG
  IC50: 3500 nM
hERG; 0.5 µM
  inhibition of hERG currents: −0.68 ± 3.95%
hERG; 5 µM
  inhibition of hERG currents: 65.95 ± 6.78%
hERG; ratio
  hERG IC50 over IC50 of inhibition of tumor growth in NCI 60-cell line screen: up to 20 fold
NCI 60 cell-line screen; NCI 60 cell-line screen, all lines
  IC50: 160 to 29000 nM
NCI 60 cell-line screen; breast adenocarcinoma cell lines
  IC50: 160 to 3300 nM
NCI 60 cell-line screen; colon adenocarcinoma cell lines
  IC50: 350 to 29000 nM
NCI 60 cell-line screen; melanoma cell lines
  IC50: 360 to 2700 nM
tumor
  therapeutically effective dose: 10 mg/kg
[2]
  elimination rate constant (k): 0.041
  half-life (t½): 16.7 min
  intrinsic clearance (CLint): 3.30 mL/min/g

— publication PMC8820820, “Feasibility and safety of targeting mitochondria for cancer therapy – preclinical characterization of gamitrinib, a first-in-class, mitochondriaL-targeted small molecule Hsp90 inhibitor” (Cancer Biology & Therapy, 2022)
